Data as given in the supplement of paper PMC10307832.

How the values were obtained:
Test in all cases: relative viability (nuclei count vs DMSO), 5 days (fraction); higher = more cells survive
[1] = compound: CC1=CC(=NN1)NC2=CC(=NC(=N2)/C=C/C3=CC=CC=C3)N4CCN(CC4)C + CCNC(=O)c1noc(-c2cc(C(C)C)c(O)cc2O)c1-c1ccc(CN2CCOCC2)cc1 [Luminespib] (partner 0.01 µM)
In short: (§1)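 Relative viability is defined as nuclei in treated wells over nuclei in vehicle wells. Duplicate plates were run and medians reported. Lung cancer cell lines in 1536-well plates were dosed by pin tool one day after seeding, with one drug or with a fixed anchor-drug dose plus five library-drug doses (not always all listed) in √10 steps, and nuclei were counted after 5 days.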

[2] = compound: CC1=CC(=NN1)NC2=CC(=NC(=N2)/C=C/C3=CC=CC=C3)N4CCN(CC4)C + Nc1nc2[nH]cc(CCc3ccc(C(=O)N[C@@H](CCC(=O)O)C(=O)O)cc3)c2c(=O)[nH]1 [Pemetrexed] (partner 0.2 µM)
In short: as §1

Obatoclax + AZD7762 = compound: COC1=CC(c2cc3ccccc3[nH]2)=N/C1=C\c1[nH]c(C)cc1C [Obatoclax] + NC(=O)Nc1cc(-c2cccc(F)c2)sc1C(=O)N[C@H]1CCCNC1 [AZD7762] (partner 0.2 µM)
In short: as §1

[3] = compound: CC1=CC(=NN1)NC2=CC(=NC(=N2)/C=C/C3=CC=CC=C3)N4CCN(CC4)C + N=C(N)NC(=N)NCCc1ccccc1 [Phenformin] (partner 250 µM)
In short: as §1

NCI-H650
relative viability ([1]; first compound 0.253 µM): 0.915 | relative viability ([1]; first compound 0.8 µM): 0.813 | relative viability ([1]; first compound 2.53 µM): 0.411 | relative viability ([1]; first compound 8 µM): 0.111 | relative viability ([2]; first compound 0.08 µM): 1.01 | relative viability ([2]; first compound 0.253 µM): 1.08 | relative viability ([2]; first compound 0.8 µM): 1.01 | relative viability ([2]; first compound 2.53 µM): 0.727 | relative viability ([2]; first compound 8 µM): 0.307 | relative viability (Obatoclax + AZD7762; first compound 0.01 µM): 0.998 | relative viability (Obatoclax + AZD7762; first compound 0.03162 µM): 0.925 | relative viability (Obatoclax + AZD7762; first compound 0.3162 µM): 0.513 | relative viability (Obatoclax + AZD7762; first compound 1 µM): 0.324 | relative viability ([3]; first compound 0.253 µM): 0.521 | relative viability ([3]; first compound 0.8 µM): 0.483 | relative viability ([3]; first compound 2.53 µM): 0.371 | relative viability ([3]; first compound 8 µM): 0.181
